The test system of experiment [1] is VEGF-triggered vascularization. Nature of the experiment: Vascularization-suppressing action, VEGF matrigel plug (Example 9). The following applies: 40 μM in matrigel plug containing 100 ng/mL VEGF; 6 days later; P<0.05; FIG. 9. The format is in vivo, C57BL/6 mice. As to the method: 5-S-GAD was added to a matrigelplug containing 100 ng/mL VEGF, for injections into female C57BL/6 mice. 6 days later, the matrigel plug was scissored out, to assay the hemoglobin content in the matrigel. The results are shown in mean±standard deviation. Testing were done by the Student's t test (*P<0.05).

The subject of experiment [2] is human LDL. Nature of the experiment: Effect on the oxidation of LDL in human blood, TBARS (Example 11). Format: biochemical. The settings on record: LDL + 5 μM CuSO4, TBARS; FIG. 11. Here is the method:
LDL was prepared by a fractionation and centrifugation method. A fraction at a specific gravity of 1.019 to 1.063 g/mL in serum was defined as human LDL. 5 μM CuSO4, 5-S-GAD (3 to 100 μM) and N-acetyl-carnosine (100 μM to 10 mM) or L-carnosine (10 μM to 10 mM) were added to 0.2 mg/mL LDL, for incubation at 37° C. for 3 hours. After termination of the incubation, TEARS (a substance reactive with thiobarbituric acid) was assayed. Although the TBA reaction is a non-specific reaction, the reaction is used for a method of assaying various lipid peroxide products including malone dialdehyde. An experiment of peroxidation with copper sulfate was done twice (N=2).
An aqueous solution containing 3.75 mg/mL thiobarbituric acid (TBA), 150 mg/mL trichloroacetic acid (TCA) and 0.25 N hydrochloric acid (HCl) was prepared as the TBA reagent, while standard solutions (2, 5, 10, 20, 40 μM) of tetramethoxypropane were prepared. 100 μL each of an LDL sample or a standard solution was added together with 200 μL of the TBA reagent into an Eppendorf tube (1.5 mL), which was then sealed with a cap for thorough mixing. […] The supernatant was assayed of the absorbance (535 nm). Based on the absorbance of the standard solution, a standard curve was prepared. Based on the standard curve, the amount of TBARS in the LDL sample was calculated (in nmol/mg LDL protein) (see FIG. 11).

A short description of experiment [3]: Superoxide anion-scavenging activity, chemiluminescence, versus N-acetyl-L-carnosine (Example 7). The format is biochemical. The settings on record: lucigenin chemiluminescence; FIG. 7. As to the method:
In a 50 mM carbonate buffer (pH 10) containing 200 μM lucigenin, 100 μM xanthine and 1 mU/mL xanthine oxidase reacted together. The chemiluminescence level depending on the generated superoxide anion (O^2−) was assayed for 10 minutes. The area under the curve indicating the total chemiluminescence over the 10 minutes was calculated. A group to which PBS(−) instead of the test substance solution was added at the same amount as that of the solution, was defined as a control. In the same manner as in Example 3, the effect of 5-S-GAD or N-acetyl-L-carnosine added on the increase of chemiluminescence was examined. The suppressive activity thereof was defined as superoxide anion-scavenging activity (%) (see FIG. 7).

A short description of experiment [4]: DPPH-scavenging activity versus N-acetyl-L-carnosine (Example 6). The format is biochemical. The settings on record: 60 μM DPPH, 5 minutes; FIG. 6. Here is the method:
5-S-GAD or N-acetyl-L-carnosine was added to an ethanol solution of 60 μM DPPH for reaction at ambient temperature for 5 minutes. Subsequently, the concentration of the DPPH radical was measured via the absorbance at 517 nm. The DPPH radical concentration in a reaction solution to which distilled water instead of the test substance solution was added, was used as a control. In the same manner as in Example 2, the scavenging ratio (%) of the DPPH radical was calculated and defined as the radical-scavenging activity (see FIG. 6).

The nature of experiment [5]: Superoxide anion-scavenging activity, xanthine/xanthine oxidase, lucigenin chemiluminescence (Example 3). The format is biochemical. The following applies: for Radical-scavenging ratio (%) (superoxide anion-scavenging activity): chemiluminescence AUC over 10 minutes, control = 100, mean, n=2. As to the method: In a 50 mM carbonate buffer (pH 10) containing 200 μM lucigenin, 100 μM xanthine and 1 mU/mL xanthine oxidase reacted together. The chemiluminescence level depending on the generated superoxide anion (O^2−) was assayed with BIOLUMAT (under trade name) (Model type LB 9505, manufactured by EG&G BERTHORD Company) for 10 minutes. The area under the curve indicating the total chemiluminescence over the 10 minutes was calculated. Defining the area under the curve for a group (control) added with PBS(−) instead of the test substance solution at the same amount as that of the solution as 100, the effect of N-β-alanyl-5-S-glutathionyl-3,4-dihydroxyphenylalanine (5-S-GAD) (Table 4) or Carnosine (under trade name) (Table 5) on the increase of chemiluminescence was examined. The suppressive activity thereof was defined as superoxide anion-scavenging activity (%) (mean, n=2; see Table 4, Table 5 and FIG. 3).

We go through 1 molecule from patent publication US8304452B2, “Radical scavenger and active oxygen eliminating agent” (InBiotex Inc., priority 2005, dated 2012).

For the molecule `NCCC(=O)N[C@@H](Cc1cc(O)c(O)c(SC[C@H](NC(=O)CC[C@H](N)C(=O)O)C(=O)NCC(=O)O)c1)C(=O)O` [5-S-GAD, N-β-alanyl-5-S-glutathionyl-3,4-dihydroxyphenylalanine], the “suppression of VEGF-triggered vascularization (hemoglobin content in the matrigel)” value in experiment [1] is listed as “suppressed significantly”. Besides, the “anti-oxidation action compared with N-acetyl-carnosine and L-carnosine (in words)” value in experiment [2] is “excellent anti-oxidation action compared with N-acetyl-carnosine and L-carnosine”. For the same molecule, in experiment [3], the “superoxide anion (O^2−)-scavenging action compared with N-acetyl-L-carnosine (in words)” value was “excellent superoxide anion (O^2−)-scavenging action compared with N-acetyl-L-carnosine”. In addition, in experiment [4], the “DPPH radical-scavenging action compared with N-acetyl-L-carnosine (in words)” value is given as “excellent DPPH radical-scavenging action compared with N-acetyl-L-carnosine”. In addition, the “Radical-scavenging ratio (%) (superoxide anion-scavenging activity)” value in experiment [5] (0.1 μM added) is −0.75%; in experiment [5] (1 μM added), 26.03%; in experiment [5] (10 μM added), 78.28%; in experiment [5] (100 μM added) it was 91.19%. Besides, the “action for scavenging the superoxide anion (O^2−) (in words)” value in experiment [5] (summary of Table 4, Table 5 and FIG. 3) is reported as “strong actions for scavenging the superoxide anion (O^2−)”.
